Test results: patent US20250042872A1, “NOVEL SALT OF 1-SULFONYL PYRROLE DERIVATIVE, METHOD FOR PREPARING SAME, AND PHARMACEUTICAL COMPOSITION INCLUDING SAME” (ILDONG PHARMACEUTICAL CO., LTD., priority 2021, published 2025)
Values after ≈ are worked out from the molar mass of the structure shown. Counter-ions that a name gives are not always drawn. Like-named read-outs stand apart in the source and are kept apart here.

Columns and labels:
Assay type in all cases: physicochemical
[1] = Measurement of hygroscopicity by dynamic vapor sorption (DVS); details: FIGS. 22 and 23
Protocol: Using DVS intrinsic manufactured by SMS Co., Ltd, about 20 mg of the sample was tested for water sorption/desorption profiles at 25° C. under a 0%˜95%˜0% relative humidity (RH) cycle using the following parameters. • Temperature: T=25° C. • Equilibrium: dm/dt: 0.01%/min. • Range of RH (%) measurement step: 0%˜95%˜0%; RH(%) measurement step: 5%
Using the dynamic vapor sorption (DVS) test method described above, the hygroscopicity was measured for the hydrochloride salt prepared in Example 1 and the L-tartrate salt prepared in Example 8, and the results thereof were shown in FIGS. 22 and 23.

[2] = Evaluation of solubility in biorelevant media (water, SGF, FaSSIF, FeSSIF), HPLC; details: for Solubility-1 h Concentration / Solubility-24 h Concentration / solubility at 1 h / solubility at 24 h: 37° C.; for solubility at 1 h / solubility at 24 h: 37 °C, thermodynamic from solid; for solubility at 1 h: read-out: Solubility-1 h Concentration; for solubility at 24 h: read-out: Solubility-24 h Concentration
Protocol: Solubility in biorelevant media, such as SGF, FeSSIF, and FaSSIF was confirmed with respect to the free base and the hydrochloride salt, succinate salt and L-tartrate salt of 1-(5-(2-fluorophenyl)-4-methoxy-1-((6-methoxypyridin-3-yl)sulfonyl)-1H-pyrrole-3-yl)-N-methylmethanamine that was confirmed through the salt screening analysis result.
Buffers for the biorelevant media were prepared as follows.
Water: Laboratory Milli-Q purified water.
SGF (Stimulated Gastric Fluid): 2.0 g of sodium chloride and 7 mL of hydrochloric acid dissolved in 1000 mL of water were used.
FaSSIF (Fasted State Simulated Intestinal Fluid): A commercial product purchased from Bio-Relevant Company and manufactured according to instructions was used.
FeSSIF (Fed State Simulated Intestinal Fluid): A commercial product purchased from Bio-Relevant Company and prepared according to instructions was used.
For the experiment, about 10 mg of a compound was weighed into each glass vial and then added with 1 mL of a medium (final concentration of 10 mg/mL). Then, the sample was continuously stirred in a magnetic stirrer at 37° C. at a speed of 200 rpm. After stirring for 1 hour and 24 hours, 0.5 mL of the sample solution was transferred to a 1.5 mL centrifuge tube and centrifuged at 12,000 rpm for 5 minutes. The supernatant was diluted with suitable methanol and analyzed by HPLC.
The free acid was selected as a standard sample to quantify the solubility, and about 10 mg of the free acid was weighed into a 25 mL flask and dissolved in methanol to the […].

[3] = Evaluation of drug stability under stress conditions (high temperature open condition 60° C.), XRPD and HPLC; details: 60° C. open; for stability under harsh conditions (in words): up to week 2; for HPLC peak RT 10.063 min, RRT 1.00 (main peak): in %
Protocol: 10 mg and 40 mg of the free base and the hydrochloride salt of 1-(5-(2-fluorophenyl)-4-methoxy-1-((6-methoxypyridin-3-yl)sulfonyl)-1H-pyrrole-3-yl)-N-methylmethanamine were weighed into each vial and stored under stress conditions to investigate stability.
The stress conditions are as follows:
High temperature open condition: 60° C.;
The bottle neck of the vial was wrapped with aluminum foil with pinholes to avoid contamination, and the samples were analyzed by XRPD and HPLC at the onset (day 0), week 1 and week 2.

[4] = SGF, simulated gastric fluid, SGF

Row | hygroscopicity (in words) [1] | Solubility-1 h Concentration ([2]; FaSSIF) [µg/mL] | Solubility-24 h Concentration ([2]; FaSSIF) [µg/mL] | solubility at 1 h ([2]; FeSSIF, fessif, FeSSIF) [µg/mL] | solubility at 24 h ([2]; FeSSIF, fessif, FeSSIF) [µg/mL] | solubility at 1 h [2, 4] [µg/mL] | solubility at 24 h [2, 4] [µg/mL] | solubility at 1 h ([2]; water, water, water) [µg/mL] | solubility at 24 h ([2]; water, water, water) [µg/mL] | Assay % ([3]; onset (day 0)) [%] | stability under harsh conditions (in words) [3] | Assay % ([3]; week 1) [%] | solubility at 1 h ([2]; FaSSIF, fassif, FaSSIF) [µg/mL] | solubility at 24 h ([2]; FaSSIF, fassif, FaSSIF) [µg/mL] | SMILES | also measured
1 | very low hygroscopicity | 9710 | 5920 | 4450 | 4370 | > 10000 | > 10000 | > 10000 | > 10000 | 100.50 | excellent stability | 106.14 | – | – | CNCc1cn(S(=O)(=O)c2ccc(OC)nc2)c(-c2ccccc2F)c1OC [Hydrochloride salt, hydrochloride salt of 1-(5-(2-fluorophenyl)-4-methoxy-1-((6-methoxypyridin-3-yl)sulfonyl)-1H-pyrrole-3-yl)-N-methylmethanamine] | solubility in FaSSIF (in words) ([2]; fasted state simulated intestinal fluid): very good
2 | – | – | – | 4780 | 4720 | > 10000 | > 10000 | > 10000 | > 10000 | – | – | – | 8100 | > 10000 | CNCc1cn(S(=O)(=O)c2ccc(OC)nc2)c(-c2ccccc2F)c1OC.O=C(O)CCC(=O)O [Succinate salt, succinate salt of 1-(5-(2-fluorophenyl)-4-methoxy-1-((6-methoxypyridin-3-yl)sulfonyl)-1H-pyrrole-3-yl)-N-methylmethanamine] | –
3 | very low hygroscopicity | – | – | 4550 | 4540 | > 10000 | > 10000 | > 10000 | > 10000 | – | – | – | 8160 | > 10000 | CNCc1cn(S(=O)(=O)c2ccc(OC)nc2)c(-c2ccccc2F)c1OC.O=C(O)C(O)C(O)C(=O)O [L-tartrate salt, L-tartrate salt of 1-(5-(2-fluorophenyl)-4-methoxy-1-((6-methoxypyridin-3-yl)sulfonyl)-1H-pyrrole-3-yl)-N-methylmethanamine] | –
4 | – | 1440 (≈ 3.55 mM) | 1440 (≈ 3.55 mM) | – | – | – | – | – | – | 100.00 | high impurity content | 87.44 | – | – | CNCc1cn(S(=O)(=O)c2ccc(OC)nc2)c(-c2ccccc2F)c1OC [Free base, 1-(5-(2-fluorophenyl)-4-methoxy-1-((6-methoxypyridin-3-yl)sulfonyl)-1H-pyrrole-3-yl)-N-methylmethanamine] | Solubility-1 h Concentration ([2]; FeSSIF): 4570 µg/mL (≈ 11.3 mM); Solubility-24 h Concentration ([2]; FeSSIF): 4770 µg/mL (≈ 11.8 mM); Solubility-1 h Concentration ([2]; SGF): >10000 µg/mL; Solubility-24 h Concentration ([2]; SGF): >10000 µg/mL; Solubility-1 h Concentration ([2]; water): 8560 µg/mL (≈ 21.1 mM); Solubility-24 h Concentration ([2]; water): 8630 µg/mL (≈ 21.3 mM); HPLC peak RRT 1.07 ([3]; onset (day 0)): 0.66%; HPLC peak RT 10.063 min, RRT 1.00 (main peak) ([3]; onset (day 0)): 93.15; HPLC peak RRT 1.07 ([3]; week 1): 0.57%; HPLC peak RT 6.797 min, RRT 0.68 ([3]; week 1): 0.43%; HPLC peak RT 7.563 min, RRT 0.75 ([3]; week 1): 1%; HPLC peak RT 10.277 min, RRT 1.02 ([3]; week 1): 9.95%; HPLC peak RRT 0.93 ([3]; week 2): 0.14%; HPLC peak RT 10.063 min, RRT 1.00 (main peak) ([3]; week 2): 65.00
